According to patent publication US20240150423A1, “GLP-1 ANALOGUE-MODIFIED DIMERS WITH DIFFERENT CONFIGURATIONS, PREPARATION METHOD THEREOF, AND APPLICATION THEREOF IN TREATMENT OF TYPE II DIABETES” (Nanjing Finepeptide Biopharmaceutical Co.,Ltd, priority 2019, published 2024):
Non-standard residues stand in square brackets, D forms with d. No end group written: not given here. bAib = not defined here; PEG = not defined here; βAla = NCCC(=O)O

Test system: Normal Kunming (KM) mice
Assay: multiple OGTT (mOGTT): hypoglycemic duration after a single administration
Format: in vivo
Conditions: single injection at the same dose (1.126 nmol), subcutaneous; for Hypoglycemic: monomeric peptides
Text: • 1. Methods: Normal Kunming (KM) mice (purchased from Guangdong Animal Center) were used for oral glucose tolerance test (OGTT) to obtain the hypoglycemic activity and durability of drug. […] The blood glucose meter and blood glucose test paper were from Bayer […]. The average blood glucose of each group was used as an evaluation standard: When the average blood glucose of experimental group was higher than that of the NaCl control group for two times, the measurement stopped and the hypoglycemic period compared to the blank control group was the effective duration. • 2. Results • 2.1 single OGTTs: after a single administration, the mice were orally administered glucose once and measured the blood glucose from the tail blood at 0, 10, 20, 40, 60 and 120 min. […] The duration of each monomer group was about 1⁄2-1⁄4 of the duration of its corresponding dimer group. […] Therefore, the 2G3 peptide was selected for treating type II diabetes (T2D) in vivo and subsequent experiments.

Substance | Hypoglycemic duration | Hypoglycemic
2G8 series 67: disulfide-linked homodimer of monomer SEQ ID NO: 67 (H[bAib]EGTFTCDVSSYLEGQAAKEFIAWLVR[bAib]R; reading uncertain; also: disulfide-linked homodimer of two chains, disulfide at 8, other end not in the chain) | 3 days | –
2G8 series 68: disulfide-linked homodimer of monomer SEQ ID NO: 68 (HXEGTFTCDVSSYLEGQAAXEFIAWLVRGRG; disulfide-linked homodimer; Sequence is synthesized; (2)..(2) Xaa is bAla; (20)..(20) Xaa is 26Lys[N-e-(N-a-oleoyl-L-g-glutamyl)]; (31)..(31) N-terminal) | 7 days | –
2G8 series 69: disulfide-linked homodimer of monomer SEQ ID NO: 69 (H[βAla]EGTFTCDVSSYLEGQAAKEFIAWLVR[βAla]R; also: disulfide-linked homodimer) | 3 days | –
2G9 series 71: disulfide-linked homodimer of PEG-modified monomer SEQ ID NO: 71 (HAEGTFTSDVSCYLEGQAAKEFIAWLVRGR-{NH2-PEG}; reading uncertain; also: disulfide-linked homodimer) | 5 days | –
His-Ala-Glu-Gly-Thr-Phe-Thr-Cys-Asp-Val-Ser-Ser-Tyr-Leu-Glu-Gly-Gln-Ala-Ala-Lys[N-α-(N-α-oleoyl-L-γ-glutamyl)]-Glu-Phe-Ile-Ala-Trp-Leu-Val-Arg-Gly-Arg-Gly-NH2 (HAEGTFTCDVSSYLEGQAAXEFIAWLVRGRG; oleoyl-gamma-Glu on Lys; C-terminal amide; Sequence is synthesized; (20)..(20) Xaa is 26Lys[N-e-(N-a-oleoyl-L-g-glutamyl)]; (31)..(31) N-terminal) [G8 series 59] | – | 3 days
His-Ala-Glu-Gly-Thr-Phe-Thr-Cys-Asp-Val-Ser-Ser-Tyr-Leu-Glu-Gly-Gln-Ala-Ala-Lys[N-ϵ-(N-α-Palmitoyl-L-γ-glutamyl)]-Glu-Phe-Ile-Ala-Trp-Leu-Val-Arg-Gly-Arg-Gly-NH2 (HAEGTFTCDVSSYLEGQAAXEFIAWLVRGRG; palmitoyl-gamma-Glu on Lys; C-terminal amide; Sequence is synthesized; (20)..(20) Xaa is 26Lys[N-e-(N-a-palmitoyl-L-g-glutamyl)]; (31)..(31) N-terminal) [G8 series 57] | – | 2 days
His-Ala-Glu-Gly-Thr-Phe-Thr-Cys-Asp-Val-Ser-Ser-Tyr-Leu-Glu-Gly-Gln-Ala-Ala-Lys[N-ϵ-(N-α-Palmitoyl-L-γ-glutamyl)]-Glu-Phe-Ile-Ala-Trp-Leu-Val-Arg-Gly-Arg-Gly-OH (HAEGTFTCDVSSYLEGQAAXEFIAWLVRGRG; palmitoyl-gamma-Glu on Lys; C-terminal acid; Sequence is synthesized; (20)..(20) Xaa is 26Lys[N-e-(N-a-palmitoyl-L-g-glutamyl)]; (31)..(31) C-terminal) [G8 series 56] | – | 1 days
His-Ala-Glu-Gly-Thr-Phe-Thr-Ser-Asp-Val-Cys-Ser-Tyr-Leu-Glu-Gly-Gln-Ala-Ala-Lys[N-ϵ-(N-α-Palmitoyl)]-Glu-Phe-Ile-Ala-Trp-Leu-Val-Arg-Gly-Arg-Gly-NH2 (HAEGTFTSDVCSYLEGQAAXEFIAWLVRGRG; palmitoyl on Lys; C-terminal amide; Sequence is synthesized; (20)..(20) Xaa is 26Lys[N-e-(N-a-palmitoyl-L-g-glutamyl)]; (31)..(31) N-terminal) [G4 series 25] | – | 5 days
His-Ala-Glu-Gly-Thr-Phe-Thr-Ser-Asp-Val-Cys-Ser-Tyr-Leu-Glu-Gly-Gln-Ala-Ala-Lys[N-ϵ-(N-α-Palmitoyl)]-Glu-Phe-Ile-Ala-Trp-Leu-Val-Arg-Gly-Arg-Gly-OH (HAEGTFTSDVCSYLEGQAAXEFIAWLVRGRG; palmitoyl on Lys; C-terminal acid; Sequence is synthesized; (20)..(20) Xaa is 26Lys[N-e-(N-a-palmitoyl-L-g-glutamyl)]; (31)..(31) C-terminal) [G4 series 24] | – | 3 days
His-Ala-Glu-Gly-Thr-Phe-Thr-Ser-Asp-Val-Cys-Ser-Tyr-Leu-Glu-Gly-Gln-Ala-Ala-Lys[N-ϵ-(N-α-Palmitoyl-L-γ-glutamyl)]-Glu-Phe-Ile-Ala-Trp-Leu-Val-Arg-Gly-Arg-Gly-NH2 (HAEGTFTSDVCSYLEGQAAXEFIAWLVRGRG; palmitoyl-γ-glutamyl on Lys; C-terminal amide; Sequence is synthesized; (20)..(20) Xaa is Xaa is 26Lys[N-e-(N-a-Palmitoyl-g-glutamyl)]; (31)..(31) N-terminal) [G2 series 8] | – | 5 days
His-Ala-Glu-Gly-Thr-Phe-Thr-Ser-Asp-Val-Cys-Ser-Tyr-Leu-Glu-Gly-Gln-Ala-Ala-Lys[N-ϵ-(N-α-oleoyl)]-Glu-Phe-Ile-Ala-Trp-Leu-Val-Arg-Gly-Arg-Gly-NH2 (HAEGTFTSDVCSYLEGQAAXEFIAWLVRGRG; oleoyl on Lys; C-terminal amide; Sequence is synthesized; (20)..(20) Xaa is 26Lys[N-e-(N-a-oleoyl-L-g-glutamyl)]; (31)..(31) N-terminal) [G4 series 27] | – | 6 days
His-Ala-Glu-Gly-Thr-Phe-Thr-Ser-Asp-Val-Cys-Ser-Tyr-Leu-Glu-Gly-Gln-Ala-Ala-Lys[N-ϵ-(N-α-oleoyl)]-Glu-Phe-Ile-Ala-Trp-Leu-Val-Arg-Gly-Arg-Gly-OH (HAEGTFTSDVCSYLEGQAAXEFIAWLVRGRG; oleoyl on Lys; C-terminal acid; Sequence is synthesized; (20)..(20) Xaa is 26Lys[N-e-(N-a-oleoyl-L-g-glutamyl)]; (31)..(31) C-terminal) [G4 series 26] | – | 4 days
His-Ala-Glu-Gly-Thr-Phe-Thr-Ser-Asp-Val-Cys-Ser-Tyr-Leu-Glu-Gly-Gln-Ala-Ala-Lys[N-ϵ-(N-α-oleoyl-L-γ-glutamyl)]-Glu-Phe-Ile-Ala-Trp-Leu-Val-Arg-Gly-Arg-Gly-NH2 (HAEGTFTSDVCSYLEGQAAXEFIAWLVRGRG; oleoyl-γ-glutamyl on Lys; C-terminal amide; Sequence is synthesized; (20)..(20) Xaa is 26Lys[N-e-(N-a-oleoyl-L-g-glutamyl)]; (31)..(31) N-terminal) [G2 series 10] | – | 5 days
His-Ala-Glu-Gly-Thr-Phe-Thr-Ser-Asp-Val-Cys-Ser-Tyr-Leu-Glu-Gly-Gln-Ala-Ala-Lys[N-ϵ-(N-α-oleoyl-L-γ-glutamyl)]-Glu-Phe-Ile-Ala-Trp-Leu-Val-Arg-Gly-Arg-Gly-OH (HAEGTFTSDVCSYLEGQAAXEFIAWLVRGRG; oleoyl-γ-glutamyl on Lys; C-terminal acid; Sequence is synthesized; (20)..(20) Xaa is 26Lys[N-e-(N-a-oleoyl-L-g-glutamyl)]; (31)..(1) C-terminal) [G2 series 9] | – | 3 days
